{"source": "a melting point compilation (Tetko et al.; mined from patent text by program, amines drawn as free bases though some values may be those of a salt)", "data": [{"units": {"melting point": "°C"}, "values": [{"smiles": "Cn1cc(-c2cc(-c3cnc4[nH]ccc4c3)ccn2)n(-c2ccc(C(C)(C)CN)cc2)c1=O", "melting point": 91}, {"smiles": "O=C(O)C1CC2CCC1c1[nH]c3ccccc3c12", "note": "(stereo not drawn)", "melting point": "212 to 214"}, {"smiles": "CC(C)(C)c1cc(SCc2ccccc2C#N)cc(C(C)(C)C)c1O", "melting point": "79 to 82"}, {"smiles": "CC(C)Nc1nc(N)c(C(=O)N=CNNS(=O)(=O)N(C)C)nc1Cl", "melting point": 172}, {"smiles": "COCCOc1ccc(CC(C)C(=O)O)c(Oc2ncc(C(F)(F)F)cc2Cl)c1", "note": "(stereo not drawn)", "melting point": "130 to 131"}, {"smiles": "CC(C)c1cccc(C(C)C)c1NC(=O)C(c1ccccc1)n1nnc(C(c2ccccc2)c2ccccc2)n1", "note": "(stereo not drawn)", "melting point": "180 to 183"}, {"smiles": "O=C(OCCN1CCC(Nc2nc3ccccc3n2Cc2ccc(F)cc2)CC1)N1CCOCC1", "melting point": 145}, {"smiles": "O=C(Nc1c(C(O)(C(F)(F)F)C(F)(F)F)ccc2ccccc12)c1ccc(Cl)c(Cl)c1", "melting point": "174 to 175"}, {"smiles": "O=C(O)c1cccc(-c2ccc3c(c2)N(Cc2cc(Cl)cc(Cl)c2)CC3)c1", "melting point": "207 to 208"}, {"smiles": "CC(=O)Nc1c(C(=O)c2ccc3ccccc3c2)[nH]c2cc(Cl)ccc12", "melting point": "167 to 169"}, {"smiles": "O=C(O)c1ccc(-c2nc(-c3cccc(Oc4ccccc4)c3)no2)cc1", "melting point": "292 to 293"}, {"smiles": "Cc1ccccc1-n1ccc2c(Cl)nc3c(C)cccc3c21", "melting point": "135 to 137"}, {"smiles": "CC1=C2OCOC2CC(C)(C)C1=O", "note": "(stereo not drawn)", "melting point": "55.5 to 57"}, {"smiles": "COc1c(Cl)ccc(-c2cc(N)c(Cl)c(C(=O)NOCc3ccc(Cl)cc3)n2)c1F", "melting point": "177 to 180"}, {"smiles": "NNc1ncccc1-c1cccnc1", "melting point": "104 to 107"}, {"smiles": "COC(=O)c1cc2cc(OCCCl)ccc2s1", "melting point": "116 to 117"}, {"smiles": "Cn1c(=O)cc(CC(=O)O)c2cc(C#N)ccc21", "melting point": 238}, {"smiles": "CN(Cc1ccc([N+](=O)[O-])cc1)C1CCN(c2ccc(NS(C)(=O)=O)cc2)CC1", "melting point": "167 to 168"}, {"smiles": "CS(=O)(=O)Nc1ccccc1C(=O)Nc1ccc(OCCN2CCCC2)cc1", "melting point": "221 to 222"}, {"smiles": "CNC(=O)[C@H](C)C[C@H](O)[C@H](CC1CCCCC1)NC(=O)OC(C)(C)C", "melting point": "144 to 145"}, {"smiles": "CCc1[nH]n(C2CCCC2)c2nc(-c3cccc(OC4CCCCN(C)C4)c3)nc(=O)c1-2", "note": "(stereo not drawn)", "melting point": "195 to 196"}, {"smiles": "CCn1ncc2nc(C(=O)OCC#N)c(C)nc21", "melting point": "83 to 84"}, {"smiles": "Cc1cc(C)c(C2C(=O)N3CCCCN3C2=O)c(C)c1", "melting point": "247 to 248"}, {"smiles": "CN(CC(=O)O)C(=O)c1c(N)cccc1I", "melting point": "147 to 149"}, {"smiles": "O=C1CCCN1CCCn1c(=O)[nH]c2ncc(-c3ccc(O)cc3)nc21", "melting point": "305 to 306"}, {"smiles": "Cc1cccc(NC(=O)c2cc([N+](=O)[O-])ccc2NC(=O)CF)c1C", "melting point": "236 to 239"}, {"smiles": "N#Cc1ccc(C2NC(=O)NC2=O)c(N2CCCC2)c1", "note": "(stereo not drawn)", "melting point": 154}, {"smiles": "CCNC(=C[N+](=O)[O-])NCCSCc1csc(CN(C)C)n1", "melting point": "89 to 90"}, {"smiles": "CCCCC(=O)Nc1ccc(C(F)(F)F)c(-n2nc(CC)n(Cc3ccc(-c4ccccc4S(=O)(=O)NC(=O)OC(C)(C)C)cc3F)c2=O)c1", "melting point": "121 to 123"}, {"smiles": "O=C(C=c1sc2n(c1=O)Cc1ccccc1N=2)NC1CCCCC1", "melting point": "287 to 288"}, {"smiles": "CC1(CF)C=C(C#N)c2cc([N+](=O)[O-])ccc2O1", "note": "(stereo not drawn)", "melting point": "169 to 171"}, {"smiles": "NS(=O)(=O)c1cc2c3c(cc([N+](=O)[O-])c2cc1[N+](=O)[O-])N(C(=O)C(F)(F)F)CC3CCl", "note": "(stereo not drawn)", "melting point": "201 to 204"}, {"smiles": "CC(CS)C(=O)NC(CC(N)=O)C(=O)O", "note": "(stereo not drawn)", "melting point": 181}, {"smiles": "Cc1cccc(OC(C)C)c1S(N)(=O)=O", "melting point": 78}, {"smiles": "Cc1cccc(-n2c(-c3sc(Nc4ccccc4)nc3-c3ccccc3)nc3ccccc3c2=O)c1", "melting point": "105 to 107"}, {"smiles": "Cc1ccc(-c2ccc(C(=O)Nc3cc4ncc(CN5CCCC5)cc4cc3F)c(F)c2)cc1", "melting point": "179 to 181"}, {"smiles": "CCOC(=O)c1ccc(-c2nc(COc3ccc(COc4nn(-c5ccccc5)cc4/C=C\\c4csc(CC)n4)cc3OC)c(C)o2)s1", "melting point": "118 to 119"}, {"smiles": "Cc1cccc(CNC(=O)c2ccc3n2Cc2ccccc2N(C(=O)c2ccc(-c4ccccc4C)c(C)c2)C3)c1", "melting point": "130 to 132"}, {"smiles": "CCc1csc2nc(C(=O)OC)cn12", "melting point": "147 to 149"}, {"smiles": "OC1CSC(Oc2ccc(F)nc2)C(O)C1O", "note": "(stereo not drawn)", "melting point": "209 to 210"}, {"smiles": "COc1cc2c(cc1OC)C(=O)C(Cc1ccncc1)C2", "note": "(stereo not drawn)", "melting point": "192 to 193"}, {"smiles": "Oc1ccc(-c2c3ccccc3c(Br)c3sc4ccccc4c23)cc1", "melting point": "211 to 213"}, {"smiles": "CCCCCCCCCCCCCCOc1ccc(CC(=O)Nc2cccc(-c3nccs3)c2)cc1", "melting point": "128 to 131"}, {"smiles": "C=CCNc1nc(NCC=C)nc(N2CCN(C(=S)n3ccnc3)CC2)n1", "melting point": "124 to 127"}, {"smiles": "CCOCCNC(=O)n1sc(OCC)nc1=O", "melting point": "< 50"}, {"smiles": "CCCCC(CNC(=O)Nc1c(C(C)C)cccc1C(C)C)c1cccc(C)c1", "note": "(stereo not drawn)", "melting point": "173 to 174"}, {"smiles": "CCc1cn(C2CC(O)C(CNC(=O)C(C)S(=O)c3ccc(Cl)cc3Cl)O2)c(=O)[nH]c1=O", "note": "(mixture of isomers)", "melting point": "208 to 209"}, {"smiles": "CC(C)Cc1ccc2oc(=O)c(=O)oc2c1", "melting point": "92 to 97"}, {"smiles": "CCCCn1c(=O)[nH]c2cccnc2c1=O", "melting point": "200 to 210"}, {"smiles": "Cn1ncc(-c2ccc(O)cc2)cc1=O", "melting point": "296 to 298"}, {"smiles": "O=C(CBr)c1cc(O)c(O)c([N+](=O)[O-])c1", "melting point": "138 to 140"}, {"smiles": "O=C(CCCc1ccccc1)N[C@H](Cc1ccccc1C(F)(F)F)[C@@H](O)c1ccc(F)cc1", "note": "(racemic)", "melting point": "161 to 162"}, {"smiles": "CC(C)(C)OC(=O)N[C@@H]1C(=O)N2C(C(=O)OC(c3ccccc3)c3ccccc3)=C(/C=C3\\CCN(CC4CC4)C3=O)CS[C@H]12", "melting point": "175 to 180"}, {"smiles": "O=C(O)CC(=O)Nc1ccccc1CCNC(=O)/C(=C/c1c[nH]c2ccccc12)NC(=O)OC1C2CC3CC(C2)CC1C3", "note": "(stereo not drawn)", "melting point": "112 to 120"}, {"smiles": "CCOC(=O)C(OCC)C(=O)Nc1ccc(Br)cc1", "note": "(stereo not drawn)", "melting point": "62 to 64"}, {"smiles": "CC(C)[C@H](N)C(=O)NC(Cc1ccccc1)C(O)C(Cc1ccccc1)NC(=O)[C@@H](NC(=O)OCc1ccccc1)C(C)C", "note": "(stereo partly drawn)", "melting point": "126 to 127"}, {"smiles": "CN1CCN(c2cccc3ccc(NC(=O)OCc4ccccc4)cc23)CC1", "melting point": "143 to 144"}, {"smiles": "CCOC(=O)c1sc(N)nc1C(C)C", "melting point": "174 to 178"}, {"smiles": "CC(=O)NCCc1coc2ccc3c(c12)CCCO3", "melting point": 162}, {"smiles": "Cc1ccc(CCCO)c(NCc2ccc3nc(NCCCN4CCOCC4)n(Cc4cccc(Br)n4)c3c2)c1", "melting point": 141}, {"smiles": "CCCCSc1ccc(-c2cc3ccccc3[nH]2)cc1", "melting point": "189 to 191"}, {"smiles": "Cc1nc(N)sc1S(=O)(=O)NCCN(C)C", "melting point": 153}, {"smiles": "CCOc1nc(=O)n(C(=O)NC)s1", "melting point": 152}, {"smiles": "CC=COc1cc(N)c(Cl)cc1C(=O)O", "melting point": "136 to 137"}, {"smiles": "CC1(C)Cc2c(Cl)cccc2C=[N+]1[O-]", "melting point": "104 to 106"}, {"smiles": "CCOC(=O)C1=C(C)NC(c2cscn2)=NC1c1cccc(F)c1", "note": "(stereo not drawn)", "melting point": "118 to 120"}, {"smiles": "CC(C)c1ccc2c(c1)OCc1ccc(C(=O)O)cc1C2=O", "melting point": "203 to 204"}, {"smiles": "Cc1cc(Cn2c(-c3ccccc3)nc(Cl)c2CC#N)ccc1O", "melting point": "194 to 196"}, {"smiles": "CCOC(=O)Cn1ccc2ccc3c(c21)CCN(C(=O)OC(C)(C)C)CC3", "melting point": "111 to 115"}, {"smiles": "CCOC(=O)c1sc2cc(Cn3ccnc3)ccc2c1Cl", "melting point": "127 to 129"}, {"smiles": "Cn1ncc2[nH]c3ccc(Cc4cccc(C(=O)O)c4)cc3c(=O)c21", "melting point": "> 300"}, {"smiles": "CCOC(=O)C1(CCCCOc2ccc(C(=O)OC)cc2)Cc2c(OC)c(OC)c(OC)c(OC)c2C1=O", "note": "(stereo not drawn)", "melting point": "116 to 118"}, {"smiles": "Cc1ccc(S(=O)(=O)N2CCC(C#N)(c3ccc(Cl)cc3)CC2)cc1", "melting point": "202 to 206"}, {"smiles": "CC(C)(C)OC(=O)N1CCN2C(=O)N(c3ccc(C#N)c4ccccc34)C(=O)C2C1", "note": "(stereo not drawn)", "melting point": "222 to 224"}, {"smiles": "O=C(NO)c1ccc(C(=O)Nc2cccc(Nc3nc(-c4cccnc4)cs3)c2)cc1", "melting point": 206}, {"smiles": "O=C(NCCCCCn1ccnc1)c1ccc(Cl)nc1", "melting point": "110 to 112"}, {"smiles": "C(=C(c1ccccc1)c1ccccc1)C1CCN(CCCCCCCCc2cccnc2)CC1", "melting point": "54 to 55"}, {"smiles": "CCCNC(=O)CCc1ccc2c(c1)c(Cc1ccc(C(=O)O)cc1OC)cn2CCC", "melting point": "68 to 78"}, {"smiles": "Cn1c(C(=O)NC(CF)Cc2ccccc2)cc2c(O)cccc21", "note": "(stereo not drawn)", "melting point": "161 to 162"}, {"smiles": "O=C(O)c1cccc(-c2ccnc3c(C(=O)c4cccs4)cnn23)c1", "melting point": "174 to 177"}, {"smiles": "O=C(c1ccc(OC(F)F)c2oc3ccccc3c12)[NH+]([O-])c1ccncc1", "note": "(stereo not drawn)", "melting point": 244}, {"smiles": "Cc1ccc(N(C)N=C(N)C(N)=O)cc1OCC(F)(F)C(F)(F)F", "melting point": "129 to 130"}, {"smiles": "COC(=O)CC(O)CP(=O)(C#Cc1c(C(C)C)c2n(c1-c1ccc(F)cc1)CCCC2)OC", "note": "(stereo not drawn)", "melting point": "100 to 101"}, {"smiles": "OC[C@H]1OC(O)[C@H](O)[C@H](F)[C@@H]1O", "note": "(stereo partly drawn)", "melting point": "120 to 122"}, {"smiles": "CN1c2ccccc2N(Cc2ccccc2)C(=O)[C@H]2CCC[C@H]21", "note": "(relative stereo)", "melting point": "123 to 125"}, {"smiles": "O=C(O)CCCc1cc2cc(Cl)ccc2n1S(=O)(=O)c1ccc2ncsc2c1", "melting point": "74 to 80"}, {"smiles": "CCN1CCN(c2nc(-c3ccccc3)nc3sc(C#N)c(C)c23)CC1", "melting point": "178 to 179"}, {"smiles": "C[C@@H](NCC1COc2ccccc2N1)c1ccccc1", "note": "(stereo partly drawn)", "melting point": "91 to 92"}, {"smiles": "CCOP(=O)(OCC)C1(P(=O)(OCC)OCC)CC(C(=O)c2ccccc2[N+](=O)[O-])=NN1", "melting point": "111 to 112"}, {"smiles": "O=C(O)c1n[nH]c2cc(F)ccc12", "melting point": "> 290"}, {"smiles": "O=C(Nc1ccc2cc(CN3CCCCCC3)cnc2c1)c1ccc(-c2ccc(F)cc2)cc1", "melting point": 202}, {"smiles": "Cc1c(N2CC(F)C(CN)C2)c(F)cc2c(=O)n(N)c(=O)n(C3CC3)c12", "note": "(stereo not drawn)", "melting point": "170 to 172"}, {"smiles": "FC(F)(F)c1cccnc1OCc1ccnc2cc(Cl)ccc12", "melting point": "125 to 127"}, {"smiles": "CCOC(=O)c1coc(-c2ccc(CCl)cc2)n1", "melting point": "115 to 117"}, {"smiles": "N=C(NC(=O)NCCCCCCNC(=O)NC(=N)Nc1ccc(Cl)cc1)Nc1ccc(Cl)cc1", "melting point": "186 to 190"}, {"smiles": "COc1cc2c(cc1O)CCN(C(=O)c1cccc(C#N)c1)C2=O", "melting point": "197 to 198"}, {"smiles": "CC(=O)OCCCN(C)CCN(C)C(=O)[C@@H]1CCCN1S(=O)(=O)c1ccc(Cl)c(COc2cccc3c(-n4ccnc4)cc(C)nc23)c1Cl", "melting point": 75}, {"smiles": "OC1OC2C(Br)C3CC1C2C3", "note": "(stereo not drawn)", "melting point": 61}]}]}
